Assay results: patent publication US9296736B2 (priority 2010, dated 2016)

Biological target: interaction between GST-hMDM2 (1-188) and biotinylated-p53 (1-83) (Homo sapiens (Human), UniProt Q00987)
Assay: biochemical

interaction between GST-hMDM2 (1-188) and biotinylated-p53 (1-83), sequence (Q00987 1-188): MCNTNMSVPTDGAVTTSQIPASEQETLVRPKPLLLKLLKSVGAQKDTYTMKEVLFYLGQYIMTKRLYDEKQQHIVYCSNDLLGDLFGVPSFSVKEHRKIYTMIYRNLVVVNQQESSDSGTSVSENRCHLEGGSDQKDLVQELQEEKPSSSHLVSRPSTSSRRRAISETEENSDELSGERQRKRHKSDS

`CC[C@@H](CNS(=O)(=O)c1cccnc1)N1C(=O)[C@@](C)(CC(=O)O)C[C@H](c2cccc(Cl)c2)[C@H]1c1ccc(Cl)cc1` [Example 196, 2-((3R,5R,6S)-5-(3-chlorophenyl)-6-(4-chlorophenyl)-3-methyl-2-oxo-1-((S)-1-(pyridine-3-sulfonamido)butan-2-yl)piperidin-3-yl)acetic acid] was tested, and the IC50 was < 1 nM.
